Drawing on patent US20030095958A1, “Inhibitors of bace” (priority 2001, published 2003), this text covers Ki for 36 compounds.

Molecules are shown by their SMILES.

Chain of BACE (P56817 46-501): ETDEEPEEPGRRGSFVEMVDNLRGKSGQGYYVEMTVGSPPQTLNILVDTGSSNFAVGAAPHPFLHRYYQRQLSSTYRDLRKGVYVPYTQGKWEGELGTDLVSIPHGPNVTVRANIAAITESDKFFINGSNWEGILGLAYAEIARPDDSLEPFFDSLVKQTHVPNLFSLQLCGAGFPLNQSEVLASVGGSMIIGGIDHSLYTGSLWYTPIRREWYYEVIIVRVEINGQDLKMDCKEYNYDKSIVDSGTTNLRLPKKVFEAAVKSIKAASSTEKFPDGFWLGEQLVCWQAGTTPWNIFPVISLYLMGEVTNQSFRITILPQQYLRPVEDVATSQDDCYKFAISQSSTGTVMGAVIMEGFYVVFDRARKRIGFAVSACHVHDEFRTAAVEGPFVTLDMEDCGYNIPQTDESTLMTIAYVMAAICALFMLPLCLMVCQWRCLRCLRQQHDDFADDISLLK

For this test, the target named is BACE (Homo sapiens, UniProt P56817). Briefly: Ki Determination for the Inhibition of BACE (FS-1 peptide fluorescence cleavage assay). The class given is biochemical. Conditions: apparent Ki; 50 nM BACE, 10 μM FS-1 substrate, 0.1M sodium acetate pH 4.5. As to the method:
Compounds were tested against BACE activity using the following modifications of the method described in J. Ermolieff et al. (2000) Biochemistry 39(51):16263.
All compound evaluations were performed in 0.1M sodium acetate (buffer), pH, 4.5, 10 μM substrate (FS-1 peptide as described in the reference above; this is commercially available), varying concentrations of the test compound or control (DMSO to yeild 2% vol/vol), and 50 nM BACE. The assay volume is 100 μL.
Two microliters of the test compound dissolved in DMSO are added to each well in a 96-well microtiter plate. Seventy eight microliters of BACE are mixed with buffer and added to each well then incubated at room temperature for 15 minutes. A stock solution of 50 μM FS-1 substrate was prepared by addition of an aliquot of FS-1 substrate which was dissolved in DMSO to the buffer and mixed well. The reaction is initiated by addition of 20 μL of the FS-1 mix to the remaining, preincubated assay components. The cleavage reaction of substrate to product is measured using a Molecular Devices fluorescence plate reader with the excitation and emission filter pairs of 355 nm and 495 nm, respectively. Apparent Ki values are determined by fitting the data to the integrated equation for competitive tight binding inhibition.
Consider `FC(F)(F)c1ccc(N2CCNCC2)c(NCc2ccc3ccccc3c2)c1` [Compound 100, Naphthalen-2-ylmethyl-(2-piperazin-1-yl-5-trifluoromethyl-phenyl)-amine], for which the Ki lay within 3 to 30 µM. The value for `O=C(Nc1cc(C(F)(F)F)ccc1N1CCNCC1)c1ccc(F)c2ccccc12` [Compound 101, 4-Fluoro-naphthalene-1-carboxylic acid (2-piperazin-1-yl-5-trifluoromethyl-phenyl)-amide] was over 30 µM; that for `O=C(Nc1cc(C(F)(F)F)ccc1N1CCNCC1)c1nccc2ccccc12` [Compound 102, Isoquinoline-1-carboxylic acid (2-piperazin-1-yl-5-trifluoromethyl-phenyl)-amide] was 3 to 30 µM; that for `O=C(Nc1cc(-c2ccc(F)cc2)ccc1N1CCNCC1)c1cccc2ccccc12` [Compound 103, Naphthalene-1-carboxylic acid (4′-fluoro-4-piperazin-1-yl-biphenyl-3-yl)-amide] was 3 to 30 µM. For the compound `O=C(Nc1cc(-c2ccc(F)c(Cl)c2)ccc1N1CCNCC1)c1cccc2ccccc12` [Compound 104, Naphthalene-1-carboxylic acid (3′-chloro-4′-fluoro-4-piperazin-1-yl-biphenyl-3-yl)-amide], the Ki is under 3 µM. For `O=Cc1cc(-c2ccc(N3CCNCC3)c(NC(=O)c3cccc4ccccc34)c2)ccc1F` [Compound 105, Naphthalene-1-carboxylic acid (4′-fluoro-3′-formyl-4-piperazin-1-yl-biphenyl-3-yl)-amide] the value was 3 to 30 µM; for `O=C(Nc1cc(-c2cccc(Cl)c2Cl)ccc1N1CCNCC1)c1cccc2ccccc12` [Compound 106, Naphthalene-1-carboxylic acid (2′,3′-dichloro-4-piperazin-1-yl-biphenyl-3-yl)-amide], under 3 µM; for `O=C(Nc1cc(-c2ccc(Cl)cc2Cl)ccc1N1CCNCC1)c1cccc2ccccc12` [Compound 107, Naphthalene-1-carboxylic acid (2′,4′-dichloro-4-piperazin-1-yl-biphenyl-3-yl)-amide], under 3 µM. Turning to `O=C(Nc1cc(-c2cc(Cl)ccc2Cl)ccc1N1CCNCC1)c1cccc2ccccc12` [Compound 108, Naphthalene-1-carboxylic acid (2′,5′-dichloro-4-piperazin-1-yl-biphenyl-3-yl)-amide], the Ki was under 3 µM.

Take `O=C(Nc1cc(-c2cc(Cl)cc(Cl)c2Cl)ccc1N1CCNCC1)c1cccc2ccccc12` [Compound 109, Naphthalene-1-carboxylic acid (2′,3′,5′-trichloro-4-piperazin-1-yl-biphenyl-3-yl)-amide]: the Ki is under 3 µM.

As to `O=C(Nc1cc(-c2cccnc2)ccc1N1CCNCC1)c1cccc2ccccc12` [Compound 110, Naphthalene-1-carboxylic acid (2-piperazin-1-yl-5-pyridin-3-yl-phenyl)-amide], the Ki lay in the range of 3 to 30 µM. For `O=C(Nc1cc(-c2ccncc2)ccc1N1CCNCC1)c1cccc2ccccc12` [Compound 111, Naphthalene-1-carboxylic acid (2-piperazin-1-yl-5-pyridin-4-yl-phenyl)-amide] the value was 3 to 30 µM; for `Cc1cc(N2CCNCC2)c(NC(=O)c2cccc3ccccc23)cc1Br` [Compound 112, Naphthalene-1-carboxylic acid (5-bromo-4-methyl-2-piperazin-1-yl-phenyl)-amide], over 30 µM. For `O=C(Nc1cc(C(F)(F)F)ccc1N1CCNCC1)c1ccc2ccccc2c1` [Compound 113, Naphthalene-2-carboxylic acid (2-piperazin-1-yl-5-trifluoromethyl-phenyl)-amide] the value was 3 to 30 µM. Regarding `O=C(Nc1cc(C(F)(F)F)ccc1N1CCNCC1)c1cccc2ccccc12` [Compound 114, Naphthalene-1-carboxylic acid (2-piperazin-1-yl-5-trifluoromethyl-phenyl)-amide], the Ki is 3 to 30 µM.

As for `O=C(Nc1cc(C(F)(F)F)cc(NC(=O)c2ccc3ccccc3c2)c1N1CCNCC1)c1ccc2ccccc2c1` [Compound 115, 4-{2,6-Bis-[(naphthalene-2-carbonyl)-amino]-4-trifluoromethyl-phenyl}-piperazine], the Ki was 3 to 30 µM.

Take `FC(F)(F)c1ccccc1OCc1ccc(COc2ccccc2C(F)(F)F)c(N2CCNCC2)c1` [Compound 116, 1-[2,5-Bis-(2-trifluoromethyl-phenoxymethyl)-phenyl]-piperazine]: the Ki was under 3 µM. For `CC(C)(C)c1ccc(C(=O)Nc2cc(C(F)(F)F)ccc2N2CCNCC2)cc1` [Compound 117, 4-tert-Butyl-N-(2-piperazin-1-yl-5-trifluoromethyl-phenyl)-benzamide] the value was over 30 µM. For `O=C(Nc1cc(Br)ccc1N1CCNCC1)c1cccc2ccccc12` [Compound 118, Naphthalene-1-carboxylic acid (5-bromo-2-piperazin-1-yl-phenyl)-amide] the value was over 30 µM. The value for `COc1cccc(-c2ccc(N3CCNCC3)c(NC(=O)c3cccc4ccccc34)c2)c1` [Compound 119, Naphthalene-1-carboxylic acid (3′-methoxy-4-piperazin-1-yl-biphenyl-3-yl)-amide] was over 30 µM; that for `COc1ccc(-c2ccc(N3CCNCC3)c(NC(=O)c3cccc4ccccc34)c2)cc1` [Compound 120, Naphthalene-1-carboxylic acid (4′-methoxy-4-piperazin-1-yl-biphenyl-3-yl)-amide] was 3 to 30 µM; that for `O=C(Nc1cc(-c2ccc(Cl)cc2)ccc1N1CCNCC1)c1cccc2ccccc12` [Compound 121, Naphthalene-1-carboxylic acid (4′-chloro-4-piperazin-1-yl-biphenyl-3-yl)-amide] was 3 to 30 µM. Regarding `O=C(Nc1cc(-c2ccccc2Cl)ccc1N1CCNCC1)c1cccc2ccccc12` [Compound 122, Naphthalene-1-carboxylic acid (2′-chloro-4-piperazin-1-yl-biphenyl-3-yl)-amide], the Ki fell in the range of 3 to 30 µM. For `O=C(Nc1cc(-c2cccc(Cl)c2)ccc1N1CCNCC1)c1cccc2ccccc12` [Compound 123, Naphthalene-1-carboxylic acid (3′-chloro-4-piperazin-1-yl-biphenyl-3-yl)-amide] the value was 3 to 30 µM; for `Cc1ccc(-c2ccc(N3CCNCC3)c(NC(=O)c3cccc4ccccc34)c2)cc1` [Compound 124, Naphthalene-1-carboxylic acid (4′-methyl-4-piperazin-1-yl-biphenyl-3-yl)-amide], 3 to 30 µM; for `O=C(Nc1cc(COc2ccccc2C(F)(F)F)ccc1N1CCNCC1)c1cccc2ccccc12` [Compound 125, Naphthalene-1-carboxylic acid [2-piperazin-1-yl-5-(2-trifluoromethyl-phenoxymethyl)-phenyl]-amide], 3 to 30 µM. The value for `Cc1cccc(-c2ccc(N3CCNCC3)c(NC(=O)c3cccc4ccccc34)c2)c1` [Compound 126, Naphthalene-1-carboxylic acid (3′-methyl-4-piperazin-1-yl-biphenyl-3-yl)-amide] was 3 to 30 µM; that for `O=C(Nc1cc(C(F)(F)F)cc(NC(=O)c2cccc3ccccc23)c1N1CCNCC1)c1cccc2ccccc12` [Compound 127, 4-{2,6-Bis-[(naphthalene-1-carbonyl)-amino]-4-trifluoromethyl-phenyl}-piperazine] was 3 to 30 µM; that for `O=C(Nc1cc(-c2cccc(C(F)(F)F)c2)ccc1N1CCNCC1)c1cccc2ccccc12` [Compound 128, Naphthalene-1-carboxylic acid (4-piperazin-1-yl-3′-trifluoromethyl-biphenyl-3-yl)-amide] was 3 to 30 µM. Take `O=C(Nc1cc(-c2ccc(C(F)(F)F)cc2)ccc1N1CCNCC1)c1cccc2ccccc12` [Compound 129, Naphthalene-1-carboxylic acid (4-piperazin-1-yl-4′-trifluoromethyl-biphenyl-3-yl)-amide]: the Ki was under 3 µM. For `O=C(Nc1cc(-c2ccc(Cl)c(Cl)c2)ccc1N1CCNCC1)c1cccc2ccccc12` [Compound 130, Naphthalene-1-carboxylic acid (3′,4′-dichloro-4-piperazin-1-yl-biphenyl-3-yl)-amide] the value was under 3 µM; for `N#Cc1ccc(-c2ccc(N3CCNCC3)c(NC(=O)c3cccc4ccccc34)c2)cc1` [Compound 131, Naphthalene-1-carboxylic acid (4′-cyano-4-piperazin-1-yl-biphenyl-3-yl)-amide], 3 to 30 µM. The value for `O=C(Nc1cc(Oc2ccccc2)ccc1N1CCNCC1)c1cccc2ccccc12` [Compound 132, Naphthalene-1-carboxylic acid (5-phenoxy-2-piperazin-1-yl-phenyl)-amide] was 3 to 30 µM; that for `O=C(Nc1cc(Oc2ccc(Cl)cc2)ccc1N1CCNCC1)c1cccc2ccccc12` [Compound 133, Naphthalene-1-carboxylic acid [5-(4-chloro-phenoxy)-2-piperazin-1-yl-phenyl]-amide] was 3 to 30 µM; that for `O=C(Cc1cccc2ccccc12)Nc1cc(C(F)(F)F)ccc1N1CCNCC1` [Compound 134, 2-Naphthalen-1-yl-N-(2-piperazin-1-yl-5-trifluoromethyl-phenyl)-acetamide] was over 30 µM. For `O=S(=O)(Nc1cc(C(F)(F)F)ccc1N1CCNCC1)c1cccc2ccccc12` [Compound 135, Naphthalene-1-sulfonic acid (2-piperazin-1-yl-5-trifluoromethyl-phenyl)-amide] the value was over 30 µM.
